Test [1] concerns the target T1, p38 MAPKα isoform (MAPK14) (Homo sapiens, UniProt Q16539).
T1 construct: purchased Life Technologies
As to the kind of experiment: p38 MAPKα enzyme inhibition (Z-LYTE FRET). It counts as biochemical. The settings on record: Table 2B, unit inferred; read-out: p38 MAPKα (Enzyme Profile). The gist of the method:
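Activity was measured indirectly as phosphorylation of a MAPKAP-K2-derived FRET peptide. Enzyme (added at 40 ng/mL) was preincubated 2 h at RT with compound (added solutions 40–0.0012 μg/mL).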

Test [2] concerns the target T2, p38MAPKγ (MAPK12) (Homo sapiens, UniProt P53778).
T2 construct: purchased Life Technologies
T2 sequence (P53778 1-367): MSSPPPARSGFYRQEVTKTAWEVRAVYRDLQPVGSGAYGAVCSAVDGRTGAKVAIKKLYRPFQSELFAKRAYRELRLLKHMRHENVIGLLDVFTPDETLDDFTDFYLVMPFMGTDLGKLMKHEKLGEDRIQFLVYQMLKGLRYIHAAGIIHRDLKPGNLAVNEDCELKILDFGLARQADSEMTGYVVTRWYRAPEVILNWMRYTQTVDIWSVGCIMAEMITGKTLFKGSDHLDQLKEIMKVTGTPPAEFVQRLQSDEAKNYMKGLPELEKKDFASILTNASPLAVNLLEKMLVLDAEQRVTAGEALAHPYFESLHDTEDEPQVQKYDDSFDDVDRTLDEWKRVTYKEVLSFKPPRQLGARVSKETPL
Briefly: p38 MAPKγ enzyme inhibition (Z-LYTE FRET). The settings on record: Table 2B, unit inferred; read-out: p38 MAPKγ (Enzyme Profile). The test is classed as biochemical. The gist of the method: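 Enzyme (added at 800 ng/mL) was preincubated 2 h at RT with compound (solutions of 40 to 0.0012 μg/mL), then FRET peptide (8 μM) and ATP (400 μM), both as added, were reacted 1 h at RT. Protease development followed for 1 h; phosphorylation was read as the coumarin/fluorescein emission ratio.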

SMILES strings stand for the structures.

T1 sequence (Q16539 whole entry, canonical isoform): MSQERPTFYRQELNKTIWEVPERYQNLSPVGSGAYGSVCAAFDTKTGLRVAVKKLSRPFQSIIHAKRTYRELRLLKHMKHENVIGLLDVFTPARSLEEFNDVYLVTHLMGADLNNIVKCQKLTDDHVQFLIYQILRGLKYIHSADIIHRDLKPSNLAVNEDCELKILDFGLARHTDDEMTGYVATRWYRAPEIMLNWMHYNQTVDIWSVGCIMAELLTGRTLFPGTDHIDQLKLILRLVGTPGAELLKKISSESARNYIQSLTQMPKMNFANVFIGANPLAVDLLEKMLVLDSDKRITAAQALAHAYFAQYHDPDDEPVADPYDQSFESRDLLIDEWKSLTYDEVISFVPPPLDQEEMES

For the molecule `COCC1CN(C(=O)c2cnc(Nc3cc(COc4ccc(NC(=O)Nc5cc(C(C)(C)C)nn5-c5ccc(C)cc5)c5ccccc45)ccn3)cn2)C1` [Example 225, 1-(3-(tert-butyl)-1-(p-tolyl)-1H-pyrazol-5-yl)-3-(4-((2-((5-(3-(methoxymethyl)azetidine-l-carbonyl)pyrazin-2-yl)amino)pyridin-4-yl)methoxy)naphthalen-1-yl)urea], the figures for the IC50 in test [1] and in test [2] were 14 nM and 342 nM, respectively.
For `COCc1cccc(-n2nc(C(C)(C)C)cc2NC(=O)Nc2ccc(OCc3ccnc(Nc4cnc(CN5CCOCC5)cn4)c3)c3ccccc23)c1` [Example 262, 1-(3-(tert-butyl)-1-(3-(methoxymethyl)phenyl)-1H-pyrazol-5-yl)-3-(4-((2-((5-(morpholinomethyl)pyrazin-2-yl)amino)pyridin-4-yl)methoxy)naphthalen-1-yl)urea], in that order: 11 nM and 174 nM.
Turning to `Cc1ccc(-n2nc(C(C)(C)C)cc2NC(=O)Nc2ccc(OCc3ccnc(Nc4cnc(C(=O)N5CC[C@@H](F)C5)cn4)c3)c3ccccc23)cc1` [Example 245, (R)-1-(3-(tert-butyl)-1-(p-tolyl)-1H-pyrazol-5-yl)-3-(4-((2-((5-(3-fluoropyrrolidine-1-carbonyl)pyrazin-2-yl)amino)pyridin-4-yl)methoxy)naphthalen-1-yl)urea], the IC50 in test [1] was determined as 18 nM; in test [2], 1700 nM.
For `Cc1ccc(-n2nc(C(C)(C)C)cc2NC(=O)Nc2ccc(OCc3ccnc(Nc4cnc(C(=O)NCCN5CCCCC5)cn4)c3)c3ccccc23)cc1` [Example 79], in that order: less than 0.4 nM and 101 nM.
Taken in the same sequence, the figures for `CCc1cncc(Nc2cc(COc3ccc(NC(=O)Nc4cc(C(C)(C)C)nn4-c4ccc(OC)c(C)c4)c4ccccc34)ccn2)n1` [Example 140, 1-(3-(tert-butyl)-1-(4-methoxy-3-methylphenyl)-1H-pyrazol-5-yl)-3-(4-((2-((6-ethylpyrazin-2-yl)amino)pyridin-4-yl)methoxy)naphthalen-1-yl)urea] were 29 nM and greater than 15200 nM.
Regarding `CC(=O)N1CCN(C(=O)c2cnc(Nc3cc(COc4ccc(NC(=O)Nc5cc(C(C)(C)C)nn5-c5ccc(C)cc5)c5ccccc45)ccn3)cn2)CC1` [Example 240, 1-(4-((2-((5-(4-acetyl-piperazine-1-carbonyl)pyrazin-2-yl)amino)pyridin-4-yl)methoxy)naphthalen-1-yl)-3-(3-(tert-butyl)-1-(p-tolyl)-1H-pyrazol-5-yl)urea], the IC50 in test [1] is 12 nM; in test [2] it was 80 nM.
With `COC1CN(C(=O)c2cnc(Nc3cc(COc4ccc(NC(=O)Nc5cc(C(C)(C)C)nn5-c5ccc(C)cc5)c5ccccc45)ccn3)cn2)C1` [Example 163, 1-(3-(tert-butyl)-1-(p-tolyl)-1H-pyrazol-5-yl)-3-(4-((2-((5-(3-methoxyazetidine-1-carbonyl)pyrazin-2-yl)amino)pyridin-4-yl)methoxy)naphthalen-1-yl) urea], the IC50 in test [1] worked out at 19 nM; in test [2] it was 389 nM.
For `CSc1ccc(-n2nc(C(C)(C)C)cc2NC(=O)Nc2ccc(OCc3ccnc(Nc4cnccn4)c3)c3ccccc23)cc1` [Example 149, 1-(3-(tert-butyl)-1-(4-(methylthio)phenyl)-1H-pyrazol-5-yl)-3-(4-((2-(pyrazin-2-ylamino)pyridin-4-yl)methoxy)naphthalen-1-yl)urea], in that order: 13 nM and greater than 15900 nM.
With `CC(C)c1cccc(-n2nc(C(C)(C)C)cc2NC(=O)Nc2ccc(OCc3ccnc(Nc4cnccn4)c3)c3ccccc23)c1` [Example 131, 1-(3-(tert-butyl)-1-(3-isopropylphenyl)-1H-pyrazol-5-yl)-3-(4-((2-(pyrazin-2-ylamino)pyridin-4-yl)methoxy)naphthalen-1-yl) urea], the IC50 in test [1] was 14 nM; in test [2], greater than 15900 nM.
For `CO[C@H]1CCN(C(=O)c2cnc(Nc3cc(COc4ccc(NC(=O)Nc5cc(C(C)(C)C)nn5-c5cccc(C)c5)c5ccccc45)ccn3)cn2)C1` [Example 200, (S)-1-(3-(tert-butyl)-1-(m-tolyl)-1H-pyrazol-5-yl)-3-(4-((2-((5-(3-methoxy-pyrrolidine-1-carbonyl)pyrazin-2-yl)amino)pyridin-4-yl)methoxy)naphthalen-1-yl)urea], in that order: 13 nM and 1240 nM.
As to `Cc1cc(C)cc(-n2nc(C(C)(C)C)cc2NC(=O)Nc2ccc(OCc3ccnc(Nc4cnccn4)c3)c3ccccc23)c1` [Example 180, 1-(3-(tert-butyl)-1-(3,5-dimethylphenyl)-1H-pyrazol-5-yl)-3-(4-((2-(pyrazin-2-ylamino)pyridin-4-yl)methoxy)naphthalen-1-yl) urea], the IC50 in test [1] came out at 19 nM; in test [2] it was 112 nM.
Take `COC1CCN(C(=O)c2cnc(Nc3cc(COc4ccc(NC(=O)Nc5cc(C(C)(C)C)nn5-c5ccc(C)cc5)c5ccccc45)ccn3)cn2)CC1` [Example 56]: the figures for the IC50 in test [1] and in test [2] were 21 nM and 262 nM, respectively.
Taken in the same sequence, the figures for `COc1cc(C)cc(-n2nc(C(C)(C)C)cc2NC(=O)Nc2ccc(OCc3ccnc(Nc4cnccn4)c3)c3ccccc23)c1` [Example 196, 1-(3-(tert-butyl)-1-(3-methoxy-5-methylphenyl)-1H-pyrazol-5-yl)-3-(4-((2-(pyrazin-2-ylamino)pyridin-4-yl)methoxy)naphthalen-1-yl)urea] were 29 nM and 219 nM.
Turning to `COc1ccc(-n2nc(C(C)(C)C)cc2NC(=O)Nc2ccc(OCc3ccnc(Nc4cnc(CO)cn4)c3)c3ccccc23)cc1C` [Example 133, 1-(3-(tert-butyl)-1-(4-methoxy-3-methylphenyl)-1H-pyrazol-5-yl)-3-(4-((2-((5-(hydroxymethyl)pyrazin-2-yl)amino)pyridin-4-yl)methoxy)naphthalen-1-yl) urea], the IC50 in test [1] is 7.3 nM; in test [2], 10200 nM.
Take `Cc1ccc(-n2nc(C(C)(C)C)cc2NC(=O)Nc2ccc(OCc3ccnc(Nc4cnc(C(=O)NCCOC(C)C)cn4)c3)c3ccccc23)cc1` [Example 124, 5-((4-(((4-(3-(3-(tert-butyl)-1-(p-tolyl)-1H-pyrazol-5-yl)ureido)naphthalen-1-yl)oxy)methyl)pyridin-2-yl)amino)-N-(2-isopropoxy-ethyl)pyrazine-2-carboxamide]: the IC50 in test [1] is 288 nM; in test [2], greater than 13700 nM.
For `Cc1ccc(-n2nc(C(C)(C)C)cc2NC(=O)Nc2ccc(OCc3ccnc(Nc4cnc(C(=O)N5CCC(F)CC5)cn4)c3)c3ccccc23)cc1` [Example 176, 1-(3-(tert-butyl)-1-(p-tolyl)-1H-pyrazol-5-yl)-3-(4-((2-((5-(4-fluoropiperidine-1-carbonyl)pyrazin-2-yl)amino)pyridin-4-yl)methoxy)naphthalen-1-yl)urea], in that order: 36 nM and 458 nM.
For `Cc1cccc(-n2nc(C(C)(C)C)cc2NC(=O)Nc2ccc(OCc3ccnc(Nc4cnc(C)c(C)n4)c3)c3ccccc23)c1` [Example 58], in that order: 18 nM and 435 nM.
Taken in the same sequence, the figures for `Cc1ccc(-n2nc(C(C)(C)C)cc2NC(=O)Nc2ccc(OCc3ccnc(Nc4cnc5c(n4)CCC5)c3)c3ccccc23)cc1` [Example 130, 1-(3-(tert-butyl)-1-(p-tolyl)-1H-pyrazol-5-yl)-3-(4-((2-((6,7-dihydro-5H-cyclopenta [b]pyrazin-2-yl)amino)pyridin-4-yl)methoxy)naphthalen-1-yl)urea] were 31 nM and 2790 nM.
Consider `CCc1ccc(-n2nc(C(C)(C)C)cc2NC(=O)Nc2ccc(OCc3ccnc(Nc4cnc(C)c(C)n4)c3)c3ccccc23)cc1` [Example 251, 1-(3-(tert-butyl)-1-(4-ethyl-phenyl)-1H-pyrazol-5-yl)-3-(4-((2-((5,6-dimethylpyrazin-2-yl)amino)pyridin-4-yl)methoxy)naphthalen-1-yl) urea], for which the IC50 is 81 nM in test [1] and greater than 15600 nM in test [2].
For `Cc1ccc(-n2nc(C(C)(C)C)cc2NC(=O)Nc2ccc(OCc3ccnc(Nc4cncc(C5CCOCC5)n4)c3)c3ccccc23)cc1` [Example 161, 1-(3-(tert-butyl)-1-(p-tolyl)-1H-pyrazol-5-yl)-3-(4-((2-((6-(tetrahydro-2H-pyran-4-yl)pyrazin-2-yl)amino)pyridin-4-yl)methoxy)naphthalen-1-yl)urea], the IC50 in test [1] came out at 10 nM; in test [2], 74 nM.
Taken in the same sequence, the figures for `CCc1cccc(-n2nc(C(C)(C)C)cc2NC(=O)Nc2ccc(OCc3ccnc(Nc4cnccn4)c3)c3ccccc23)c1` [Example 165, 1-(3-(tert-butyl)-1-(3-ethyl-phenyl)-1H-pyrazol-5-yl)-3-(4-((2-(pyrazin-2-ylamino)pyridin-4-yl)methoxy)naphthalen-1-yl) urea] were 12 nM and 128 nM.

Source of the values: patent US11142515B2, “Pyrazolyl-ureas as kinase inhibitors” (RESPIVERT LIMITED, priority 2014, dated 2021).
